The first test deals with Acinetobacter baumannii ATCC17961. Description: 90% Growth Inhibitory Concentration (IC90) determination, antimicrobial susceptibility testing. The format is cell-based. The settings on record: Acinetobacter baumannii, ATCC17961, 16 h, Acinetobacter baumannii ATCC17961; Iso-Sensitest broth; growth by optical density at 600 nm over 16h; concentration inhibiting 90% of the growth; read-out: ATCC 17961 IC90. The procedure:
Antimicrobial Susceptibility Testing:
90% Growth Inhibitory Concentration (IC90) Determination
The in vitro antimicrobial activity of the compounds was determined according to the following procedure:
The assay used a 10-points Iso-Sensitest broth medium to measure quantitatively the in vitro activity of the compounds against Acinetobacter baumannii ATCC17961.
Stock compounds in DMSO were serially twofold diluted (e.g. range from 50 to 0.097 μM final concentration) in 384 wells microtiter plates and inoculated with 49 μl the bacterial suspension in Iso-Sensitest medium to have a final cell concentration of ~5×10^(5) CFU/ml in a final volume/well of 50 ul/well. Microtiter plates were incubated at 35±2° C.
Bacterial cell growth was determined with the measurement of optical density at λ=600 nm each 20 minutes over a time course of 16h. Growth inhibition was calculated during the logarithmic growth of the bacterial cells with determination of the concentration inhibiting 50% (IC50) and 90% (IC90) of the growth.
Table 1 provides the 90% growth inhibitory concentrations (IC90) in micromoles per liter of the compounds of present invention obtained against the strain Acinetobacter baumannii ATCC17961.
In the case of `COCCn1ncc(-n2cc(-c3cnc(C(=O)Nc4ccc(C(=O)N5CCN(C(=O)C6CCNCC6)CC5)c(Cl)c4)n3C)c(C(F)(F)F)n2)c1C` [Example E2, N-[3-chloro-4-[4-(piperidine-4-carbonyl)piperazine-1-carbonyl]phenyl]-5-[1-[1-(2-methoxyethyl)-5-methyl-pyrazol-4-yl]-3-(trifluoromethyl)pyrazol-4-yl]-1-methyl-imidazole-2-carboxamide], the IC90 (commonly the point of the concentration-response curve where the effect stands at 90%) is 470 nM. The same measure, in the same setting: in the case of `COCCn1cnc(-n2cc(-c3cnc(C(=O)Nc4ccc(C(=O)N5CCN(C(=O)C6CCNCC6)CC5)c(Cl)c4)n3C)c(C(F)(F)F)n2)c1` [Example E3, N-[3-chloro-4-[4-(piperidine-4-carbonyl)piperazine-1-carbonyl]phenyl]-5-[1-[1-(2-methoxyethyl)imidazol-4-yl]-3-(trifluoromethyl)pyrazol-4-yl]-1-methyl-imidazole-2-carboxamide] it was 500 nM; in that of `Cn1cnc(-n2cc(-c3cnc(C(=O)Nc4ccc(C(=O)N5CCN(C(=O)C6CCNCC6)CC5)c(Cl)c4)n3C)c(C(F)(F)F)n2)c1` [Example E4, N-[3-chloro-4-[4-(piperidine-4-carbonyl)piperazine-1-carbonyl]phenyl]-1-methyl-5-[1-(1-methylimidazol-4-yl)-3-(trifluoromethyl)pyrazol-4-yl]imidazole-2-carboxamide], 680 nM; in that of `Cc1[nH]ncc1-n1cc(-c2cnc(C(=O)Nc3ccc(C(=O)N4CCN(C(=O)C5CCNCC5)CC4)c(Cl)c3)n2C)c(C(F)(F)F)n1` [Example E5, N-[3-chloro-4-[4-(piperidine-4-carbonyl)piperazine-1-carbonyl]phenyl]-1-methyl-5-[1-(5-methyl-1H-pyrazol-4-yl)-3-(trifluoromethyl)pyrazol-4-yl]imidazole-2-carboxamide], 1400 nM. Turning to `Cc1ccc(-n2cc(-c3cnc(C(=O)Nc4ccc(C(=O)N5CCN(C(=O)C6CCNCC6)CC5)c(Cl)c4)n3C)c(C(F)(F)F)n2)nc1` [Example E6, N-[3-chloro-4-[4-(piperidine-4-carbonyl)piperazine-1-carbonyl]phenyl]-1-methyl-5-[1-(5-methyl-2-pyridyl)-3-(trifluoromethyl)pyrazol-4-yl]imidazole-2-carboxamide], the IC90 was determined as 350 nM. For `COc1ccc(-n2cc(-c3cnc(C(=O)Nc4ccc(C(=O)N5CCN(C(=O)[C@@H]6CCNC[C@H]6O)CC5)c(Cl)c4)n3C)c(C(F)(F)F)n2)nc1` [Example F4, N-[3-chloro-4-[4-[(3S,4R)-3-hydroxypiperidine-4-carbonyl]piperazine-1-carbonyl]phenyl]-5-[1-(5-methoxy-2-pyridyl)-3-(trifluoromethyl)pyrazol-4-yl]-1-methyl-imidazole-2-carboxamide], the IC90 is 310 nM.

On to `Cn1c(-c2cn(-c3ccc(N)cn3)nc2C(F)(F)F)cnc1C(=O)Nc1ccc(C(=O)N2CCC(C(=O)N3CCNC(CO)C3)CC2)c(Cl)c1` (stereo not shown) [Example H2, 5-[1-(5-amino-2-pyridyl)-3-(trifluoromethyl)pyrazol-4-yl]-N-[3-chloro-4-[4-[3-(hydroxymethyl)piperazine-1-carbonyl]piperidine-1-carbonyl]phenyl]-1-methyl-imidazole-2-carboxamide], for which the IC90 amounted to 880 nM. The same measure, in the same setting: with `Cn1c(-c2cn(-c3ccc(N)cn3)nc2C(F)(F)F)cnc1C(=O)Nc1ccc(C(=O)NCc2cc[nH]n2)c(Cl)c1` [Example I2, 5-[1-(5-amino-2-pyridyl)-3-(trifluoromethyl)pyrazol-4-yl]-N-[3-chloro-4-(1H-pyrazol-3-ylmethylcarbamoyl)phenyl]-1-methyl-imidazole-2-carboxamide] the figure was 400 nM; with `Cn1c(-c2cn(-c3ccc(N)cn3)nc2C(F)(F)F)cnc1C(=O)Nc1ccc(C(=O)NCCCN)c(Cl)c1` [Example Z2, N-[4-(3-aminopropylcarbamoyl)-3-chloro-phenyl]-5-[1-(5-amino-2-pyridyl)-3-(trifluoromethyl)pyrazol-4-yl]-1-methyl-imidazole-2-carboxamide], 980 nM. Same read-out and setting: with `Cn1c(-c2cn(-c3ccc(N)cn3)nc2C(F)(F)F)cnc1C(=O)Nc1ccc(C(=O)NCC2CCNCC2)c(Cl)c1` [Example Z3, 5-[1-(5-amino-2-pyridyl)-3-(trifluoromethyl)pyrazol-4-yl]-N-[3-chloro-4-(4-piperidylmethylcarbamoyl)phenyl]-1-methyl-imidazole-2-carboxamide] the figure was 500 nM; with `CNC1CCN(C(=O)c2ccc(NC(=O)c3ncc(-c4cn(-c5ccc(N)cn5)nc4C(F)(F)F)n3C)cc2Cl)CC1` [Example Z4, 5-[1-(5-amino-2-pyridyl)-3-(trifluoromethyl)pyrazol-4-yl]-N-[3-chloro-4-[4-(methylamino)piperidine-1-carbonyl]phenyl]-1-methyl-imidazole-2-carboxamide], 220 nM. On to `Cn1c(-c2cn(-c3ccc(N)cn3)nc2C(F)(F)F)cnc1C(=O)Nc1ccc(C(=O)NC2(CO)CCNC2)c(Cl)c1` (stereo not shown) [Example Z5, 5-[1-(5-amino-2-pyridyl)-3-(trifluoromethyl)pyrazol-4-yl]-N-[3-chloro-4-[(3-methylolpyrrolidin-3-yl)carbamoyl]phenyl]-1-methyl-imidazole-2-carboxamide], for which the IC90 came out at 1800 nM. Turning to `Cn1c(-c2cn(-c3ccc(N)cn3)nc2C(F)(F)F)cnc1C(=O)Nc1ccc(C(=O)NC2(CN)CC2)c(Cl)c1` [Example Z6, N-[4-[[1-(aminomethyl)cyclopropyl]carbamoyl]-3-chloro-phenyl]-5-[1-(5-amino-2-pyridyl)-3-(trifluoromethyl)pyrazol-4-yl]-1-methyl-imidazole-2-carboxamide], the IC90 came out at 930 nM. Still for that read-out and setting: with `Cn1c(-c2cn(-c3ccc(N)cn3)nc2C(F)(F)F)cnc1C(=O)Nc1ccc(C(=O)N2CC[C@@H](CN)C2)c(Cl)c1` [Example Z7, N-[4-[(3S)-3-(aminomethyl)pyrrolidine-1-carbonyl]-3-chloro-phenyl]-5-[1-(5-amino-2-pyridyl)-3-(trifluoromethyl)pyrazol-4-yl]-1-methyl-imidazole-2-carboxamide] the figure was 250 nM.

Staying with this test, now noted: Acinetobacter baumannii, ATCC17961, 16 h, read-out: ATCC 17961 IC90.
Regarding `COCCn1cc(-n2cc(-c3cnc(C(=O)Nc4ccc(C(=O)N5CCN(C(=O)C6CCNCC6)CC5)c(Cl)c4)n3C)c(C(F)(F)F)n2)cn1` [Example E1, N-[3-chloro-4-[4-(piperidine-4-carbonyl)piperazine-1-carbonyl]phenyl]-5-[1-[1-(2-methoxyethyl)pyrazol-4-yl]-3-(trifluoromethyl)pyrazol-4-yl]-1-methyl-imidazole-2-carboxamide], the IC90 amounted to 880 nM.

With `Cn1c(-c2cn(-c3ncccn3)nc2C(F)(F)F)cnc1C(=O)Nc1ccc(C(=O)N2CCN(C(=O)[C@H]3[C@@H]4CNC[C@@H]43)CC2)c(Cl)c1` [Example F1, N-[4-[4-[(1R,5S)-3-Azabicyclo[3.1.0]hexane-6-carbonyl]piperazine-1-carbonyl]-3-chloro-phenyl]-1-methyl-5-[1-pyrimidin-2-yl-3-(trifluoromethyl)pyrazol-4-yl]imidazole-2-carboxamide], the IC90 stood at 450 nM. On the same count and under the same terms, with `Cn1c(-c2cn(-c3ncccn3)nc2C(F)(F)F)cnc1C(=O)Nc1ccc(C(=O)N2CCN(C(=O)C3CCN(CC4CNC4)CC3)CC2)c(Cl)c1` [Example G1, N-[4-[4-[1-(Azetidin-3-ylmethyl)piperidine-4-carbonyl]piperazine-1-carbonyl]-3-chloro-phenyl]-1-methyl-5-[1-pyrimidin-2-yl-3-(trifluoromethyl)pyrazol-4-yl]imidazole-2-carboxamide] the figure was 390 nM; with `Cn1c(-c2cn(-c3ccc(N)cn3)nc2C(F)(F)F)cnc1C(=O)Nc1ccc(C(=O)N2CCC(C(=O)N3CCNCC3)CC2)c(Cl)c1` [Example H1, 5-[1-(5-Amino-2-pyridyl)-3-(trifluoromethyl)pyrazol-4-yl]-N-[3-chloro-4-[4-(piperazine-1-carbonyl)piperidine-1-carbonyl]phenyl]-1-methyl-imidazole-2-carboxamide], 480 nM; with `Cn1c(-c2cn(-c3ccc(N)cn3)nc2C(F)(F)F)cnc1C(=O)Nc1ccc(C(=O)N2CCC(CN3CCNCC3=O)CC2)c(Cl)c1` [Example I1, 5-[1-(5-Amino-2-pyridyl)-3-(trifluoromethyl)pyrazol-4-yl]-N-[3-chloro-4-[4-[(2-oxopiperazin-1-yl)methyl]piperidine-1-carbonyl]phenyl]-1-methyl-imidazole-2-carboxamide], 1500 nM. Turning to `Cn1c(-c2cn(-c3ccc(N)cn3)nc2C(F)(F)F)cnc1C(=O)Nc1ccc(C(=O)N2CCN(C(=O)[C@@H]3CC(O)CCN3)CC2)c(Cl)c1` (stereo partly shown) [Example J1], the IC90 came to 580 nM. `CCNc1ccc(-n2cc(-c3cnc(C(=O)Nc4ccc(C(=O)N5CCN(C(=O)C6CCNCC6)CC5)c(Cl)c4)n3C)c(C(F)(F)F)n2)nc1` [Example K1, N-[3-chloro-4-[4-(piperidine-4-carbonyl)piperazine-1-carbonyl]phenyl]-5-[1-[5-(ethylamino)-2-pyridyl]-3-(trifluoromethyl)pyrazol-4-yl]-1-methyl-imidazole-2-carboxamide]: the IC90 was 500 nM. In the case of `Cn1c(-c2cn(-c3ccc(N)cn3)nc2C(F)(F)F)cnc1C(=O)Nc1ccc(C(=O)N2CC[C@H](CN)C2)c(Cl)c1` [Example Z1, N-[4-[(3R)-3-(aminomethyl)pyrrolidine-1-carbonyl]-3-chloro-phenyl]-5-[1-(5-amino-2-pyridyl)-3-(trifluoromethyl)pyrazol-4-yl]-1-methyl-imidazole-2-carboxamide], the 90% effect concentration (IC90) was 480 nM.

For the origin of these results see patent US12679824B2 (Hoffmann-La Roche Inc., priority 2020, dated 2026).
